One molecule from PMC5562448 (Chembiochem : a European journal of chemical biology, 2017) can be followed below.

The target of one experiment is HSPA1A (Homo sapiens, UniProt P0DMV8). The experiment can be described thus: isothermal titration calorimetry. The class given is binding. As to conditions: n=0.9. (Isothermal titration calorimetry measures the heat released or taken up as one component is titrated into another.)
Another experiment concerns the target HSPA8 (Homo sapiens, UniProt P11142). The experiment can be described thus: isothermal titration calorimetry. The class given is binding. The settings on record: n=1.1.

Molecules are shown by their SMILES.

Chain of HSPA1A (P0DMV8 2-641): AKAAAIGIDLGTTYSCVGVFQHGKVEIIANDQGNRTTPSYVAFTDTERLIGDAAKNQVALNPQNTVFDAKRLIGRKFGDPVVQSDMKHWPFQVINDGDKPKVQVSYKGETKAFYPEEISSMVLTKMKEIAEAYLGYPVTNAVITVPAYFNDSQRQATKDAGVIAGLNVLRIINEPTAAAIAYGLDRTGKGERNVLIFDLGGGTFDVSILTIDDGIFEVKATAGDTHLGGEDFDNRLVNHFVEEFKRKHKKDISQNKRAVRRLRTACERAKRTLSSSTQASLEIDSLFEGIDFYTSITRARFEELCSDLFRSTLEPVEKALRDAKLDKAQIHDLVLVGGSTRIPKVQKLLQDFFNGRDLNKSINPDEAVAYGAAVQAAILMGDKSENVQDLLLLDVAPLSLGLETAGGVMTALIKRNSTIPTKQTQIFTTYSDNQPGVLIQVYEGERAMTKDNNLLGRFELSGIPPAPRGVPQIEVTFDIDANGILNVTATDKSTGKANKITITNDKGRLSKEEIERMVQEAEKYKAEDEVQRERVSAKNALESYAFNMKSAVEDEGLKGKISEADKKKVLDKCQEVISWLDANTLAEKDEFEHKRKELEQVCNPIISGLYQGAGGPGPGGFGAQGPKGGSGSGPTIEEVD
Chain of HSPA8 (P11142 2-646): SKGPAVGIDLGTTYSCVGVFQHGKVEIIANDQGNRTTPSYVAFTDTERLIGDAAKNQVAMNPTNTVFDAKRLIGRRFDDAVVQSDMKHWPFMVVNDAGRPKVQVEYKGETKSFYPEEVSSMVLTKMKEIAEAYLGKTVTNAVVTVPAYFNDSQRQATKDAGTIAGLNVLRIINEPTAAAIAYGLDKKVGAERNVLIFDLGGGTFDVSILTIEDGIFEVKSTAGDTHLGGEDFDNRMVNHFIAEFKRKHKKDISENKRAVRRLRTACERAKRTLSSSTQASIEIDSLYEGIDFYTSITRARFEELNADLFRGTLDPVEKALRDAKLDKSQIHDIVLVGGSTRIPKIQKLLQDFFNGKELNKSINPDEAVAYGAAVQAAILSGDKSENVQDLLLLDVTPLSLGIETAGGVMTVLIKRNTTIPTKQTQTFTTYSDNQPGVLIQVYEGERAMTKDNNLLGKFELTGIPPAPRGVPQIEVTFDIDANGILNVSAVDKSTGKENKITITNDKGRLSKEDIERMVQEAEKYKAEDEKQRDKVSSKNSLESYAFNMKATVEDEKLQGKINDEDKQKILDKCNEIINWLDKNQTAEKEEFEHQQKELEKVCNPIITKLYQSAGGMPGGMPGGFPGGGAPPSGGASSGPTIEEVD

Turning to `C[C@@H]1[C@]2(O[C@H]3C=C4[C@@H]5CC[C@H]6Cc7nc8c(nc7C[C@]6(C)[C@H]5C[C@@H](O)[C@]4(C)[C@]31O)C[C@@H]1CC[C@H]3C4=C[C@@H]5O[C@]6(CCC(C)(C)O6)[C@@H](C)[C@@H]5[C@@]4(C)[C@H](O)C[C@@H]3[C@@]1(C)C8)O[C@](C)(CO)C[C@H]2O` [compound 3, ritterostatin GN1N], the equilibrium dissociation constant (Kd) at HSPA1A came to 625 nM; at HSPA8, 1630 nM.

Usually Kd stands for a measure of binding affinity in units of concentration. Read a high Kd as weaker binding.
